Data: patent US11053205B2, “Phenazine derivatives as antimicrobial agents” (University of Florida Research Foundation, Incorporated, priority 2017, dated 2021)
In brackets after ≈: the same amount, converted by molar mass. Several values for one entry are separate records, joined by “and”; a condition that tells them apart may be missing. Identical values can stand only once. Like-named read-outs stand apart in the source and are kept apart here. Marks after values point to notes of the source that are not given here.

What was measured:
[1] = system: MRSA BAA-1707; assay: Metal(II)-cation co-treatment MIC assay; format: cell-based; conditions: Staphylococcus aureus
[2] = system: MRSA, MRSE, and VRE; assay: MIC assays against MRSA, MRSE, and VRE (all strains); conditions: in words
[3] = system: MRSA BAA-1707; assay: MIC, broth microdilution (CLSI); conditions: 0.10 = lowest concentration tested; for MRSA BAA-1707 MIC: 16 to 18 hours at 37° C.
[4] = system: MRSE 35984; assay: MIC, broth microdilution (CLSI); conditions: for MRSE 35984 MIC: 16 to 18 hours at 37° C.; for MIC: Staphylococcus epidermidis, MRSE, read-out: MRSE 35984 MIC, 16 to 18 hours at 37° C.
[5] = system: MRSA-2; assay: MIC, broth microdilution (CLSI); conditions: for MRSA-2 MIC: 16 to 18 hours at 37° C.; for MIC: Staphylococcus aureus, MRSA, read-out: MRSA-2 MIC
[6] = system: VRE 700221; assay: MIC, broth microdilution (CLSI); conditions: 16 to 18 hours at 37° C.
[7] = system: MRSA-2 biofilms; assay: Calgary Biofilm Device (CBD) assay, MBC/MBEC; conditions: for MRSA-2 MBEC / MRSA-2 MBC: CBD; for MRSA-2 MBEC: biofilm eradication; for MRSA-2 MBC: planktonic killing
[8] = system: human red blood cells
[9] = system: MRSA BAA-1707 biofilms; assay: Calgary Biofilm Device (CBD) assay, MBC/MBEC; conditions: for MRSA BAA-1707 MBEC / MRSA BAA-1707 MBC: CBD; for MRSA BAA-1707 MBEC: biofilm eradication; for MRSA BAA-1707 MBC: planktonic killing
[10] = system: VRE 700221 biofilms; assay: Calgary Biofilm Device (CBD) assay, MBC/MBEC; conditions: for VRE 700221 MBC: planktonic killing
[11] = system: M. tuberculosis H37Ra (ATCC 25177); assay: MIC assay for Mycobacterium tuberculosis; format: cell-based; conditions: read-out: MtB H37Ra MIC
Procedure: The culture was then diluted with fresh medium until an OD600 of 0.01 was reached. […] The final DMSO concentration was maintained at 0.5%. […] Three rows were reserved for each compound. […] OD600 absorbance was recorded using SPECTRAMAX M5 (Molecular Devices). Data obtained from three independent experiments were analyzed using Excel.
The culture was then diluted with fresh medium until an OD600 of 0.01 was reached. […] The final DMSO concentration was maintained at 0.5%. […] Three rows were reserved for each compound. […] OD600 absorbance was recorded using SpectraMax M5 (Molecular Devices). Data obtained from three independent experiments were analyzed using Excel.

[12] = system: HeLa cells
[13] = system: MRSE 35984 biofilms; assay: Calgary Biofilm Device (CBD) assay, MBC/MBEC; conditions: for MRSE 35984 MBEC / MRSE 35984 MBC: CBD; for MRSE 35984 MBEC: biofilm eradication; for MRSE 35984 MBC: planktonic killing
[14] = system: MRSA BAA-44 biofilms; assay: Calgary Biofilm Device (CBD) assay, MBC/MBEC; conditions: for MRSA BAA-44 MBEC: biofilm eradication; for MRSA BAA-44 MBC: planktonic killing
[15] = system: MRSA-1; assay: MIC, broth microdilution (CLSI)

Oc1cccc2cccnc12 [8-OHQ, 8-hydroxyquinoline]
MIC ([1]; read-out: MIC w/ Mg2+): 6.25 µM

COCCOCCOCCOC(=O)OCOc1c(Br)cc(Br)c2nc3ccccc3nc12 [80A]
activity in MIC assays [2]: no activity in MIC assays

O=C(OCCSSCCOC(=O)c1ccccc1)OCOc1c(Br)cc(Br)c2nc3ccccc3nc12 [85A]
activity in MIC assays [2]: no antibacterial activity against any pathogen tested

CC(C)(C)c1ccc2nc3c(O)c(Br)cc(Br)c3nc2c1 [Compound 55A]
MRSA BAA-1707 MIC [3]: 0.1^b μM | MRSE 35984 MIC [4]: 0.1^b μM | MRSA-2 MIC [5]: 0.1^b μM | VRE 700221 MIC [6]: 0.1^b μM | MRSA-2 MBEC [7]: 3.13/3.13 μM | MRSA-2 MBC [7]: 3.13/3.13 μM | Hemolysis at 200 μM [8]: ≤1%

Oc1c(Br)cc(Br)c2nc3ccccc3nc12 [Compound 1A]
MRSA BAA-1707 MBEC [9]: 150 µM | MRSA BAA-1707 MBC [9]: 37.5 µM and 18.8 µM | MRSE 35984 MIC [4]: 1.17^a μM and 1.17 μM | VRE 700221 MBC ([10]; CBD): 23.5 µM | MIC [11]: 25 µM (≈ 8.85 µg/mL) | IC50 [12]: > 100 µM | VRE 700221 MIC [6]: 6.25 µM | MRSE 35984 MBEC [13]: 100 µM | MRSE 35984 MBC [13]: 50 µM | MRSA-2 MBEC [7]: 100 µM | MRSA-2 MBC [7]: 50 µM | MRSA BAA-44 MBEC [14]: 150 µM | MRSA BAA-44 MBC [14]: 375 µM

CCN(CC)c1ccc2nc3c(O)c(Br)cc(Br)c3nc2c1Br [Compound 64A]
MRSA BAA-1707 MBC [9]: 9.38 µM | MRSA BAA-1707 MIC [3]: 0.15^a μM | MRSE 35984 MIC [4]: 0.1^b μM | VRE 700221 MBC ([10]; CBD): 2.35 µM | MRSA-2 MIC [5]: 0.3^a μM | VRE 700221 MIC [6]: 0.3^a μM | MRSE 35984 MBEC [13]: 6.25 µM | MRSE 35984 MBC [13]: 9.38 µM | Hemolysis at 200 μM [8]: ≤1%

Oc1cccc2nc3ccccc3nc12 [1-OHP, 1-hydroxyphenazine]
MIC [1]: 250 µM | MIC ([1]; read-out: MIC w/ Cu2+): 75 µM | MIC ([1]; read-out: MIC w/ Fe2+): 250 µM | MIC ([1]; read-out: MIC w/ Mg2+): 250 µM | MIC ([1]; read-out: MIC w/ Zn2+): > 500 µM

Oc1c(Br)cc(Br)c2nc3cc(Oc4ccccc4)ccc3nc12 [Compound 63A]
MRSA BAA-1707 MBC [9]: […] | MRSA BAA-1707 MIC [3]: 0.075^a μM | MRSE 35984 MIC [4]: 0.1^b μM | VRE 700221 MBC ([10]; CBD): 2.35 µM | MIC [11]: 6.25 µM (≈ 2.79 µg/mL) | MRSA-2 MIC [5]: 0.39 µM | Hemolysis at 200 μM [8]: ≤1%

c1ccc(CN(CCN(Cc2ccccn2)Cc2ccccn2)Cc2ccccn2)nc1 [TPEN, N,N,N′,N′-tetrakis(2-pyridylmethyl)ethane-1,2-diamine, reference compound]
MIC ([1]; copper(II) at 200 μM, read-out: MIC w/ Cu2+): 500 µM | MIC ([1]; iron(II) at 200 μM, read-out: MIC w/ Fe2+): 125 µM | MIC ([1]; magnesium(II) at 200 μM, read-out: MIC w/ Mg2+): 62.5 µM | MIC ([1]; no metal(II) cation added, read-out: MIC): 46.9 µM | MIC ([1]; zinc(II) at 200 μM, read-out: MIC w/ Zn2+): 250 µM | MRSA BAA-1707 MBC [9]: 250 µM | MBC ([9]; Staphylococcus aureus, BAA1707|MRSA, read-out: MRSA BAA-1707 MBC, CBD, planktonic killing): 375 µM (≈ 159 µg/mL) | MIC ([15]; Staphylococcus aureus, MRSA, read-out: MRSA-1 MIC): 75 µM (≈ 31.8 µg/mL) | MRSA BAA-1707 MIC [3]: 50 ^ μM | MIC ([3]; Staphylococcus aureus, BAA1707|MRSA, read-out: MRSA BAA-1707 MIC, 16 to 18 hours at 37° C.): 46.9 µM (≈ 19.9 µg/mL) | MIC [4]: 12.5 µM (≈ 5.31 µg/mL) | MBC ([10]; Enterococcus, VRE, read-out: VRE 700221 MBC): 188 µM (≈ 79.8 µg/mL) | MIC [5]: 50 µM (≈ 21.2 µg/mL) | Hemolysis at 200 μM ([8]; human, 1 h, 200 μM, pH 7.2): ≤1%

Cc1ccc2nc3c(O)c(Br)cc(Br)c3nc2c1 [Compound 52A]
MRSE 35984 MIC [4]: 0.3^a μM | VRE 700221 MBEC ([10]; CBD, biofilm eradication): 3.13 µM | VRE 700221 MBC ([10]; CBD): 12.5 µM | MIC [11]: 6.25 µM (≈ 2.3 µg/mL) | VRE 700221 MIC [6]: 2.35^a μM | Hemolysis at 200 μM [8]: ≤1%

Oc1c(Br)cc(Br)c2nc3c(O)c(Br)cc(Br)c3nc12 [HP 1-15]
MRSA-1 MIC ([15]; 16 to 18 hours at 37° C.): >50 ^ μM | MRSA BAA-1707 MIC [3]: >50 µM | MRSE 35984 MIC [4]: >50 µM | MRSA-2 MIC [5]: >50 µM | VRE 700221 MIC [6]: >50 µM

Oc1c(Br)cc(Br)c2nc3cc(Cl)ccc3nc12 [Compound 61A]
MRSE 35984 MIC [4]: 0.1^b μM | MRSA-2 MIC [5]: 0.1^b μM | MRSA-2 MBEC [7]: 25 µM | MRSA-2 MBC [7]: 6.25 µM | Hemolysis at 200 μM [8]: ≤1%

OC[C@H]1O[C@@H](Oc2c(Br)cc(Br)c3nc4ccccc4nc23)[C@H](O)[C@@H](O)[C@@H]1O [79A]
activity in MIC assays [2]: no activity in MIC assays

O=C(OCCOCCOCCOCCO)OCOc1c(Br)cc(Br)c2nc3ccccc3nc12 [82A]
activity in MIC assays [2]: no activity in MIC assays

Cc1cc(C)c2nc3c(Br)ccc(O)c3nc2c1 [Compound 68A]
MRSA BAA-1707 MIC [3]: 4.69^a μM | MRSE 35984 MIC [4]: 2.35^a μM | MIC [11]: 50 µM (≈ 15.2 µg/mL) | IC50 [12]: > 100 µM | VRE 700221 MIC [6]: 9.38^a μM

CO[C@H]1/C=C/O[C@@]2(C)Oc3c(C)c(O)c4c(O)c(c(/C=N/N5CCN(C)CC5)c(O)c4c3C2=O)NC(=O)/C(C)=C\C=C\[C@H](C)[C@H](O)[C@@H](C)[C@@H](O)[C@@H](C)[C@H](OC(C)=O)[C@@H]1C [Rifampin, reference compound]
MIC [4]: 0.1 µM (≈ 0.0823 µg/mL) | MIC [5]: 0.1 µM (≈ 0.0823 µg/mL) | MBC ([13]; Staphylococcus epidermidis, MRSE, read-out: MRSE 35984 MBC): 3 µM (≈ 2.47 µg/mL) | MRSA-2 MBEC [7]: 46.9 µM | MBC ([7]; Staphylococcus aureus, MRSA, read-out: MRSA-2 MBC): 2 µM (≈ 1.65 µg/mL)

CCc1ccc2nc3c(O)c(Br)cc(Br)c3nc2c1 [Compound 53A]
MRSA BAA-1707 MBEC [9]: 150 µM | MRSA BAA-1707 MBC [9]: 75 µM | MRSA BAA-1707 MIC [3]: 0.1^b μM | MRSE 35984 MIC [4]: 0.1^b μM | MIC [11]: 6.25 µM (≈ 2.39 µg/mL) | MRSA-2 MIC [5]: 0.59^a μM | VRE 700221 MIC [6]: 2.35^a μM | MRSE 35984 MBEC [13]: 75 µM | MRSE 35984 MBC [13]: 50 µM | MRSA-2 MBEC [7]: 150 µM | MRSA-2 MBC [7]: 75 µM | MRSA BAA-44 MBEC [14]: 75^a/75^a μM | MRSA BAA-44 MBC [14]: 75^a/75^a μM | Hemolysis at 200 μM [8]: 3.0%

COCCOCCOCCOCCOC(=O)Oc1c(Br)cc(Br)c2nc3ccccc3nc12 [HP 1-24]
MIC ([11]; Mycobacterium tuberculosis, 168 h, seven days at 37° C.): 25 µM (≈ 14.7 µg/mL) | HeLa cell cytotoxicity at 100 μM [12]: no HeLa cell cytotoxicity | Hemolysis at 200 μM ([8]; human, 1 h, 200 μM, pH 7.2): 2.4%
